This passage reports TGI and GI50 results from PubChem BioAssay (NCI).

Test systems include HOP-92 NSCLC; SW-620 colon; UO-31 renal; TK-10 renal; SF-295 CNS; SK-MEL-2 melanoma; HOP-62 NSCLC; NCI-H522 lung; CAKI-1 renal; NCI-H460 lung.
Holding throughout (test): inhibition of tumour cell growth, NCI panel, 48 h

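1) Cells in 96-well plates. 2) Compound, 48 h, 5 concentrations. 3) Linear interpolation between surrounding doses. 4) Unreached endpoint = highest concentration. The concentration for 50% growth inhibition is given as GI50. Definition used: TGI = concentration required for complete inhibition of growth.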 Where only a bound is given, the exact number is not on record here.

Regarding `CC1(C=O)CC(CCc2ccccc2)NC1Cc1ccc(O)cc1` (stereo not drawn), the TGI in the test on HOP-92 NSCLC was determined as 30 µM; in the test with SW-620 colon, 62.3 µM; with UO-31 renal it was 28.4 µM; in the test on TK-10 renal, 31.8 µM; in the test on SF-295 CNS it was 33.8 µM; in the test with SK-MEL-2 melanoma it was 29 µM. The TGI is 36.4 µM in the test with HOP-62 NSCLC, 35 µM with NCI-H522 lung, 29.3 µM in the test on CAKI-1 renal and 31.8 µM in the test on NCI-H460 lung.
Regarding `COC(=O)[C@]12CC[C@H]3CN(S(=O)(=O)c4ccc(C)cc4)[C@H]([C@H]31)[C@H](c1ccco1)N2S(=O)(=O)c1ccc(C)cc1`, the TGI with HOP-92 NSCLC was 62.8 µM; with SW-620 colon it was more than 100 µM; in the test on UO-31 renal, more than 100 µM; in the test on TK-10 renal, more than 100 µM; in the test on SF-295 CNS, more than 100 µM; in the test with SK-MEL-2 melanoma, more than 100 µM. Also, the TGI in the test on HOP-62 NSCLC, with NCI-H522 lung, in the test with CAKI-1 renal and in the test on NCI-H460 lung was more than 100 µM throughout.
Consider `Nc1c(S(=O)(=O)O)cc(S(=O)(=O)O)c2ccc(N=Nc3ccccc3)c(O)c12`, for which the TGI in the test on HOP-92 NSCLC, with SW-620 colon, with UO-31 renal, with TK-10 renal, with SF-295 CNS and in the test on SK-MEL-2 melanoma was more than 100 µM each time. Also, the TGI with HOP-62 NSCLC, in the test with NCI-H522 lung, with CAKI-1 renal and with NCI-H460 lung was more than 100 µM throughout.
With `C/C=C\C1OC1(C)c1cc(=O)c2c(C)cc3c(c2o1)C(=O)c1c(O)c(C2CC(C)(N(C)C)C(OC(C)=O)C(C)O2)cc(C2CC(N(C)C)C(O)C(C)O2)c1C3=O` (stereo not drawn), the TGI stood at 0.0251 µM in the test on HOP-92 NSCLC; 0.0369 µM in the test with SW-620 colon; 0.0106 µM with UO-31 renal; 1.47 µM with TK-10 renal; 0.00762 µM in the test with SF-295 CNS; 0.00657 µM in the test with SK-MEL-2 melanoma. Moreover, the TGI was found to be 0.0121 µM in the test with HOP-62 NSCLC, 0.00964 µM in the test with NCI-H522 lung, 0.0431 µM in the test on CAKI-1 renal and 0.0129 µM in the test with NCI-H460 lung.
On to `O=C(c1ccccc1)c1ccc(N2C(=O)/C(=C/c3ccccc3S)N=C2c2ccccc2)c(N2C(=O)/C(=C/c3ccccc3S)N=C2c2ccccc2)c1`, for which the TGI was more than 100 µM with HOP-92 NSCLC; more than 100 µM with SW-620 colon; more than 100 µM with UO-31 renal; more than 100 µM with TK-10 renal; more than 100 µM in the test with SF-295 CNS; 57.3 µM in the test on SK-MEL-2 melanoma. Besides, the TGI in the test on HOP-62 NSCLC, with CAKI-1 renal and with NCI-H460 lung was more than 100 µM in each case.
For `O=C(O)C1=C(CO)Oc2cc3c(cc2C1c1ccc2c(c1)OCO2)OCO3` (stereo not drawn), the TGI with HOP-92 NSCLC, with SW-620 colon, with UO-31 renal, with TK-10 renal, in the test with SF-295 CNS and in the test on SK-MEL-2 melanoma was more than 100 µM throughout. For the same molecule, the TGI in the test with HOP-62 NSCLC, in the test with CAKI-1 renal and with NCI-H460 lung was more than 100 µM each time.
Regarding `CCCCCCC(=O)OC[n+]1ccc(-c2c(COC(=O)NC(C)C)c(COC(=O)NC(C)C)c3n2CCC3)cc1`, the TGI in the test with HOP-92 NSCLC, with SW-620 colon, with UO-31 renal, in the test on TK-10 renal, in the test with SF-295 CNS and in the test on SK-MEL-2 melanoma was more than 100 µM throughout. The TGI in the test on HOP-62 NSCLC was more than 100 µM; in the test with NCI-H522 lung, more than 100 µM; in the test with CAKI-1 renal, 99.4 µM; with NCI-H460 lung, more than 100 µM.
As for `C=C(C)[C@@H]1CC[C@]2(C(=O)O)CC[C@]3(C)[C@H](CC[C@@H]4[C@@]5(C)C/C(=C/c6ccco6)C(=O)C(C)(C)[C@@H]5CC[C@]43C)[C@@H]12`, the GI50 is 2.52 µM with SW-620 colon; 3.65 µM in the test on TK-10 renal; 3.24 µM in the test with SF-295 CNS; 2.75 µM in the test on SK-MEL-2 melanoma; 2.77 µM with HOP-62 NSCLC; 2.81 µM in the test with NCI-H522 lung. The GI50 in the test with CAKI-1 renal was 3.5 µM. Besides, the TGI in the test on SW-620 colon is 6.89 µM; in the test with TK-10 renal, 46.9 µM; in the test on SF-295 CNS, more than 100 µM; in the test on SK-MEL-2 melanoma it was 8.85 µM; in the test with HOP-62 NSCLC, 31.3 µM; in the test with NCI-H522 lung, 9.85 µM. This molecule registered a TGI in the test on CAKI-1 renal of more than 100 µM.
With `C/C(=C\[Si](C)(C)c1ccco1)C(C)(O)[C@H](C)O` (stereo partly drawn), the TGI with HOP-92 NSCLC, in the test on SW-620 colon, in the test with TK-10 renal, in the test with SF-295 CNS, in the test with SK-MEL-2 melanoma and in the test with HOP-62 NSCLC was more than 100 µM throughout. For the same molecule, the TGI in the test on NCI-H522 lung is 74.4 µM; in the test on CAKI-1 renal, more than 100 µM; in the test with NCI-H460 lung it was more than 100 µM.
On to `Cc1nn(CNc2ccc(F)c(Cl)c2)c(=S)n1/N=C/c1ccc(-c2ccc(Cl)cc2Cl)o1`, for which the TGI in the test with SW-620 colon stood at 29.2 µM; in the test with UO-31 renal, 32.2 µM; in the test with TK-10 renal, 28.9 µM; in the test on SF-295 CNS, 33.7 µM; with SK-MEL-2 melanoma, 41.3 µM; in the test with HOP-62 NSCLC, 35.9 µM. The TGI with NCI-H522 lung amounted to 29.7 µM; in the test on CAKI-1 renal it was 35.8 µM; in the test with NCI-H460 lung, 33.7 µM.
For the molecule `CC(=O)NC1C(OCc2ccccc2)OC(CO)C(O)C1OCC(=O)NC(C(=O)NC(CCC(=O)NCCCCCC(=O)Nc1ccc2c(c1)CN1C(=O)c3ccccc3C1=N2)C(N)=O)C(C)C` (stereo not drawn), the TGI was more than 100 µM in the test with HOP-92 NSCLC; more than 100 µM with SW-620 colon; more than 100 µM in the test with UO-31 renal; 39.6 µM with TK-10 renal; 60.8 µM in the test on SF-295 CNS; 64.8 µM with SK-MEL-2 melanoma. Further, the TGI with HOP-62 NSCLC was 40.8 µM; in the test with CAKI-1 renal it was more than 100 µM; in the test with NCI-H460 lung, 51.2 µM.
As for `O=P1(Oc2ccc(Cl)cc2Cl)Oc2cc3ccccc3cc2O1`, the TGI with HOP-92 NSCLC, with SW-620 colon, in the test on UO-31 renal, in the test on SF-295 CNS, in the test with SK-MEL-2 melanoma and in the test on HOP-62 NSCLC was more than 100 µM throughout. The TGI with NCI-H522 lung is 82.6 µM; with CAKI-1 renal, more than 100 µM; with NCI-H460 lung, more than 100 µM.
